Measured values published in paper PMC8526204, “Effects of Sinapic Acid Combined with Cisplatin on the Apoptosis and Autophagy of the Hepatoma Cells HepG2 and SMMC-7721” (Evidence-based Complementary and Alternative Medicine : eCAM, 2021).
Where a name gives a salt, the structure may show the parent alone. Read-outs that look alike come from different tables or passages of the source. Peptide text beside a SMILES is read from it. * marks the point of attachment. Cbz = O=C(OCc1ccccc1)*; CH2F = FC*

Key:
[1] = test system: HepG2 cells; test: Cell cycle analysis by flow cytometry (PI), HepG2; type: cell-based, human; conditions: 72 h, control 12.79 ± 0.89%
Method: The HepG2 and SMMC-7721 cells were seeded in a 6-well plate (5 × 10^5 cells/well). The cells were photographed using the inverted microscope (Eclipse Ti-S, Nikon Co., Ltd., Japan) to observe the morphological changes. The cells were collected, treated with 70% precooled ethanol (1 mL) in an ice bath, blew and mixed well, and then, fixed overnight at 4°C. The cells were stained with 25 µL PI staining solution and 10 µL RNase staining solution, according to the manufacturer's protocol, and the cell cycle was analyzed by flow cytometry (Attune NxT, Thermo Fisher Scientific Inc., USA).

[2] = test system: SMMC-7721 cells; test: Western blot of apoptosis- and autophagy-related proteins, SMMC-7721; type: cell-based, human
Method: (§1) The HepG2 and SMMC-7721 cells treated with Sa/DDP were collected and using radioimmunoprecipitation assay buffer to lyse the cells at 4°C for 30 min to extract the total protein. The protein concentration of the samples was measured using the BCA protein assay kit, after centrifugation at 12,000 g at 4°C for 5 min, and denatured by boiling at 100°C. An equal amount of protein (30 μg) was resolved using the sodium dodecyl sulfate-polyacrylamide gel (10–12%) electrophoresis for 1.5 h. The proteins were then transferred onto a membrane of nitrocellulose and blocked using 5% skimmed milk for 2 h at 20°C, followed by rinsing thrice using PBS containing 0.1% Tween 20 (PBS-T), for 5 min each. Furthermore, the […] were incubated in diluted anti-Bax, Bcl-2 PARP, c-PARP, a-caspase-3, caspase-3, p62, Beclin-1, Atg5, LC3I/II, and β-actin according to 1 : 1,000, incubated overnight at 4°C, and subsequently washed repeatedly the next day. The membranes were incubated with a secondary antibody (1 : 3000) for 1 h at ambient temperature and washed repeatedly. After washing the membrane, it was developed by the FluorChem M image acquisition system (Protein Simple Inc., USA). The quantification was performed (where appropriate) using the ImageJ software (Rawak Software Inc., Stuttgart, Germany).

[3] = MTT cell viability assay, HepG2; type: cell-based, human; conditions: human, HepG2 cells
Method: (§2) The cells HepG2, SMMC-7721, and HL-7702 were seeded in 96-well plates containing 6,000 cells per well, supplemented with various concentrations of Sa (0–2,000 μM) and DDP (5 μM). After the cells were incubated at 37°C for 24, 48, and 72 h, they were cultured with 20 µL MTT (5 mg/mL) for 4 h. The formazan crystals were dissolved by adding 150 µL of dimethyl sulfoxide, followed by recording the absorbance at 490 nm using a microplate reader (Varioskan LUX, Thermo Fisher Scientific Inc., USA) and calculating the percentage of cell viability.

[4] = test system: HepG2 cells; test: MTT cell viability assay, HepG2; type: cell-based, human; conditions: for IC50: Homo sapiens, HepG2, Sa treatment, MTT
Method: as §2

[5] = test system: HepG2 cells; test: Western blot of apoptosis- and autophagy-related proteins, HepG2; type: cell-based, human
Method: as §1

[6] = test system: HepG2 cells; test: Annexin V-FITC/PI apoptosis assay, HepG2; type: cell-based, human; conditions: HepG2, Sa 600 μM, 72 h; control 13.06 ± 1.04%
Method: (§3) The HepG2 and SMMC-7721 cells were seeded into a 6-well plate (1 × 10^5 cell/well), and after 72 h, the cells in each group were treated with trypsin and collected. The cells were rinsed twice in PBS, and a concentration of 5 × 10^5 cells/mL was treated with a binding buffer. According to the manufacturer's protocol, the cells were stained with 5 µL PI staining solution and 10 µL Annexin V-FITC staining solution with incubation for 30 min in the dark.

[7] = test system: SMMC-7721 cells; test: Annexin V-FITC/PI apoptosis assay, SMMC-7721; type: cell-based, human; conditions: SMMC-7721, Sa 600 μM, 72 h; control 3.67 ± 0.34%
Method: as §3

[8] = test system: SMMC-7721 cells; test: Colony formation assay, SMMC-7721; type: cell-based, human; conditions: SMMC-7721, Sa 600 μM, 72 h then 10 d
Method: (§4) The HepG2 and SMMC-7721 cells were seeded in a 12-well plate (200–300 cells/well). […] Then, the recovery medium was added to the complete medium (1 mL) and cultured for 10 d. Subsequently, these cells were fixed in 4% paraformaldehyde solution (1 mL) at 37°C for 2 h, stained with 0.5% crystal violet staining solution (0.5 mL) for 15 min, and photographed, and the numbers of colonies formed were tabulated. The findings were expressed as a percentage of the number of colonies in each experimental group (assuming that the control group was 100%). The ImageJ software (Rawak Software Inc., Stuttgart, Germany) was used for analyzing the data.

[9] = test system: HepG2 cells; test: Transwell migration assay, HepG2; type: cell-based, human; conditions: HepG2, Sa 600 μM, 24 h
Method: (§5) The lower section contained 700 μL of DMEM (including 10% FBS) along with the drug to be loaded. Briefly, 3 × 10^4 cells were added to the upper chamber while the lower chamber was filled with 10% FBS after incubating the cells for 24 h. The cells were cultured at 37°C for 24 h, fixed with a 4% paraformaldehyde solution, and stained with 0.5 mL of crystal violet. Subsequently, the cells in the upper chambers were removed by gently dabbing them with cotton swabs. These cells were photographed, and the invaded cells were observed using an inverted microscope (DM4 B, Leica Inc., Germany). Finally, the stained cells were counted in five randomly chosen fields under the microscope for further analysis.

[10] = test system: HL-7702 cells; test: MTT cell viability assay, normal liver HL-7702; type: cell-based, human; conditions: for IC50: Homo sapiens, L02, HL-7702, Sa treatment, MTT
Method: as §2, with “After” for “The cells HepG2, SMMC-7721, and HL-7702 were seeded in 96-well plates containing 6,000 cells per well, supplemented with various concentrations of Sa (0–2,000 μM) and DDP (5 μM). After”

[11] = test system: SMMC-7721 cells; test: Transwell migration assay, SMMC-7721; type: cell-based, human; conditions: SMMC-7721, Sa 600 μM, 24 h
Method: as §5

[12] = test system: SMMC-7721 cells; test: MTT cell viability assay, SMMC-7721; type: cell-based; conditions: Homo sapiens, SMMC-7721, Sa treatment
Method: as §2, with “After” for “The cells HepG2, SMMC-7721, and HL-7702 were seeded in 96-well plates containing 6,000 cells per well, supplemented with various concentrations of Sa (0–2,000 μM) and DDP (5 μM). After”

[13] = test system: HepG2 cells; test: Colony formation assay, HepG2; type: cell-based, human; conditions: HepG2, Sa 600 μM, 72 h then 10 d
Method: as §4

[14] = HepG2, HCQ 40 μM pretreatment 1 h then Sa 600 µM/DDP 5 µM 72 h
[15] = SMMC-7721, Sa 600 μM, 72 h, vs control
[16] = HepG2, Sa 600 μM, 72 h, vs control
[17] = HepG2, Sa 600 μM, 72 h, western blot
[18] = HepG2, Z-VAD-FMK 20 µM pretreatment 1 h then Sa 600 µM/DDP 5 µM 72 h

SMILES: N.N.[Cl][Pt][Cl] [DDP, Cisplatin]
- percentage of cells in the G2/M phase ([1]; HepG2, DDP 5 μM): 15.40 ± 1.23%

SMILES: CCN(CCO)CCCC(C)Nc1ccnc2cc(Cl)ccc12 (stereo not shown) [HCQ, Hydroxychloroquine sulfate, reference compound]
- a-caspase-3 protein expression increase compared to Sa/DDP treatment ([2]; SMMC-7721, HCQ 40 µM pretreatment 1 h then Sa 600 µM/DDP 5 µM 72 h): 0.73 times
- viability at 1 h, 40 μM ([3]; HepG2, HCQ 40 μM pretreatment 1 h, no Sa/DDP, untreated 100.00 ± 19.04%): 98.3 ± 18.7%
- reduction of cell viability compared to Sa/DDP [4, 14]: 19.07 ± 4.70%
- a-caspase-3 protein expression increase compared to Sa/DDP treatment [5, 14]: 0.34 times

SMILES: COc1cc(/C=C/C(=O)O)cc(OC)c1O [Sa, Sinapic acid]
- apoptosis rate [6]: 36.00 ± 2.52%
- apoptosis rate [7]: 10.74 ± 0.75%
- proliferation activity (colony formation, control = 100%) [8]: 72.90 ± 1.29%
- percentage of cells in the G2/M phase ([1]; HepG2, Sa 600 μM): 22.60 ± 2.26%
- Atg5 expression increase [2, 15]: 4.7 times
- Beclin-1 expression increase [2, 15]: 2.5 times
- p62 expression decrease [2, 15]: 1.7 times
- decrease of the migration rate [9]: 41.52 ± 8.80%
- inhibitory effect on normal liver cells ([10]; HL-7702, MTT): not pronounced
- IC50 ([10]; 24 h, read-out: IC50 24 h): 5060 µM
- IC50 ([10]; 48 h, read-out: IC50 48 h): 4430 µM
- IC50 ([10]; 72 h, read-out: IC50 72 h): 4020 µM
- decrease of the migration rate [11]: 49.80 ± 5.78%
- viability at 72 h, 600 µM ([3]; HepG2, Sa 600 µM, 72 h): 71.3 ± 4.08%
- IC50 ([4]; 24 h, read-out: IC50 24 h): 1800 µM
- IC50 ([4]; 48 h, read-out: IC50 48 h): 1380 µM
- IC50 ([4]; 72 h, read-out: IC50 72 h): 794 µM
- Atg5 protein expression increase [5, 16]: 2.9 fold
- Beclin-1 protein expression increase [5, 16]: 4.8 fold
- p62 protein expression decrease [5, 16]: 2.3 fold
- cleaved PARP protein increase vs control [5, 17]: 4.3 times
- cleaved caspase-3 protein increase vs control [5, 17]: 13.6 times
- IC50 ([12]; 24 h, read-out: IC50 24 h): 2580 µM
- IC50 ([12]; 48 h, read-out: IC50 48 h): 1620 µM
- IC50 ([12]; 72 h, read-out: IC50 72 h): 1350 µM
- proliferation activity (colony formation, control = 100%) [13]: 71.46 ± 2.23%

SMILES: COC(=O)C[C@H](NC(=O)[C@H](C)NC(=O)[C@@H](NC(=O)OCc1ccccc1)C(C)C)C(=O)CF [Z-VAD-FMK, reference compound] (Cbz-Val-Ala-Asp(OMe)-CH2F)
- cell viability ([4]; HepG2, Z-VAD-FMK 20 μM pretreatment 1 h, no Sa/DDP, untreated 100.00 ± 19.04%): 100.66 ± 12.14%
- LC3II protein expression increase compared to group without Z-VAD-FMK [5, 18]: 45.30 ± 2.05%
- caspase protein lysis decrease compared to group without Z-VAD-FMK [5, 18]: 25.22 ± 1.22%
